# From PubChem BioAssay (NCI)
#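 At the GI50, growth is halved. TGI: total growth inhibition.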
# How the values were obtained:
# Assay in all cases: NCI-60 cell line screen, 384-well format
# SK-OV-3 ovarian = test system: SK-OV-3 ovarian
# HCT-15 colon = test system: HCT-15 colon
# KM12 colon = test system: KM12 colon
# EKVX NSCLC = test system: EKVX NSCLC
# SK-MEL-5 melanoma = test system: SK-MEL-5 melanoma
# SK-MEL-28 melanoma = test system: SK-MEL-28 melanoma
# A549 NSCLC = test system: A549 NSCLC
# NCI-H322M lung = test system: NCI-H322M lung
# BT-549 breast = test system: BT-549 breast
# COLO 205 colon = test system: COLO 205 colon
# PC-3 prostate = test system: PC-3 prostate
# RPMI-8226 leukemia = test system: RPMI-8226 leukemia
# SR leukemia = test system: SR leukemia
# SF-539 CNS = test system: SF-539 CNS
# MDA-MB-435 melanoma = test system: MDA-MB-435 melanoma
# HCT-116 colon = test system: HCT-116 colon
# NCI-H522 lung = test system: NCI-H522 lung
# LOX IMVI melanoma = test system: LOX IMVI melanoma
# CAKI-1 renal = test system: CAKI-1 renal
# MCF7 breast = test system: MCF7 breast
# HCC-2998 colon = test system: HCC-2998 colon
# U251 glioblastoma = test system: U251 glioblastoma
# HL-60(TB) leukemia = test system: HL-60(TB) leukemia
# HS 578T breast = test system: HS 578T breast
# DU-145 prostate = test system: DU-145 prostate
# UACC-257 melanoma = test system: UACC-257 melanoma
# NCI-H460 NSCLC = test system: NCI-H460 NSCLC
# OVCAR-3 ovarian = test system: OVCAR-3 ovarian
# M14 melanoma = test system: M14 melanoma
# SN12C renal = test system: SN12C renal
# T-47D breast = test system: T-47D breast
# UACC-62 melanoma = test system: UACC-62 melanoma
# TK-10 renal = test system: TK-10 renal
# MOLT-4 leukemia = test system: MOLT-4 leukemia
# NCI/ADR-RES ovarian = test system: NCI/ADR-RES ovarian
# OVCAR-4 ovarian = test system: OVCAR-4 ovarian
# HT29 colon = test system: HT29 colon
# SF-268 CNS = test system: SF-268 CNS
# SNB-19 CNS = test system: SNB-19 CNS
# IGROV1 ovarian = test system: IGROV1 ovarian
# HOP-62 NSCLC = test system: HOP-62 NSCLC
# NCI-H226 lung = test system: NCI-H226 lung
# MDA-MB-231 breast = test system: MDA-MB-231 breast
# SNB-75 CNS = test system: SNB-75 CNS
# ACHN renal = test system: ACHN renal
# A498 renal = test system: A498 renal
# MDA-MB-468 breast = test system: MDA-MB-468 breast
# RXF 393 renal = test system: RXF 393 renal
# HOP-92 NSCLC = test system: HOP-92 NSCLC
smiles,measurement,setting,value
N#CCCNc1nonc1-c1nc2ccccc2n1CC(=O)c1ccc(N)cc1,GI50,SK-OV-3 ovarian,< 10 nM
same,TGI,SK-OV-3 ovarian,> 100000 nM
same,GI50,HCT-15 colon,16.7 nM
same,TGI,HCT-15 colon,48.6 nM
same,GI50,KM12 colon,< 10 nM
same,TGI,KM12 colon,> 100000 nM
same,GI50,EKVX NSCLC,< 10 nM
same,TGI,EKVX NSCLC,> 100000 nM
same,GI50,SK-MEL-5 melanoma,< 10 nM
same,TGI,SK-MEL-5 melanoma,17 nM
same,GI50,SK-MEL-28 melanoma,101 nM
same,TGI,SK-MEL-28 melanoma,> 100000 nM
same,GI50,A549 NSCLC,22.7 nM
same,TGI,A549 NSCLC,> 100000 nM
same,GI50,NCI-H322M lung,53.1 nM
same,TGI,NCI-H322M lung,> 100000 nM
same,GI50,BT-549 breast,< 10 nM
same,TGI,BT-549 breast,35 nM
same,GI50,COLO 205 colon,20.7 nM
same,TGI,COLO 205 colon,56.6 nM
same,GI50,PC-3 prostate,15.9 nM
same,TGI,PC-3 prostate,> 100000 nM
same,GI50,RPMI-8226 leukemia,< 10 nM
same,TGI,RPMI-8226 leukemia,22.2 nM
same,GI50,SR leukemia,< 10 nM
same,TGI,SR leukemia,< 10 nM
same,GI50,SF-539 CNS,< 10 nM
same,TGI,SF-539 CNS,25.7 nM
same,GI50,MDA-MB-435 melanoma,< 10 nM
same,TGI,MDA-MB-435 melanoma,< 10 nM
same,GI50,HCT-116 colon,< 10 nM
same,TGI,HCT-116 colon,> 100000 nM
same,GI50,NCI-H522 lung,< 10 nM
same,TGI,NCI-H522 lung,< 10 nM
same,GI50,LOX IMVI melanoma,19 nM
same,TGI,LOX IMVI melanoma,44.2 nM
same,GI50,CAKI-1 renal,< 10 nM
same,TGI,CAKI-1 renal,> 100000 nM
same,GI50,MCF7 breast,< 10 nM
same,TGI,MCF7 breast,> 100000 nM
same,GI50,HCC-2998 colon,15 nM
same,TGI,HCC-2998 colon,47.5 nM
same,GI50,U251 glioblastoma,< 10 nM
same,TGI,U251 glioblastoma,40.7 nM
same,GI50,HL-60(TB) leukemia,< 10 nM
same,TGI,HL-60(TB) leukemia,16 nM
same,GI50,HS 578T breast,< 10 nM
same,TGI,HS 578T breast,11.4 nM
same,GI50,DU-145 prostate,20.8 nM
same,TGI,DU-145 prostate,47.4 nM
same,GI50,UACC-257 melanoma,< 10 nM
same,TGI,UACC-257 melanoma,> 100000 nM
same,GI50,NCI-H460 NSCLC,< 10 nM
same,TGI,NCI-H460 NSCLC,20 nM
same,GI50,OVCAR-3 ovarian,< 10 nM
same,TGI,OVCAR-3 ovarian,14 nM
same,GI50,M14 melanoma,< 10 nM
same,TGI,M14 melanoma,21 nM
same,GI50,SN12C renal,12.2 nM
same,TGI,SN12C renal,88.2 nM
same,GI50,T-47D breast,1870 nM
same,TGI,T-47D breast,> 100000 nM
same,GI50,UACC-62 melanoma,< 10 nM
same,TGI,UACC-62 melanoma,> 100000 nM
same,GI50,TK-10 renal,< 10 nM
same,TGI,TK-10 renal,> 100000 nM
same,GI50,MOLT-4 leukemia,19.2 nM
same,TGI,MOLT-4 leukemia,33.7 nM
same,GI50,NCI/ADR-RES ovarian,< 10 nM
same,TGI,NCI/ADR-RES ovarian,< 10 nM
same,GI50,OVCAR-4 ovarian,< 10 nM
same,TGI,OVCAR-4 ovarian,2330 nM
same,GI50,HT29 colon,21 nM
same,TGI,HT29 colon,> 100000 nM
same,GI50,SF-268 CNS,< 10 nM
same,TGI,SF-268 CNS,51100 nM
same,GI50,SNB-19 CNS,< 10 nM
same,TGI,SNB-19 CNS,92 nM
same,GI50,IGROV1 ovarian,19.5 nM
same,TGI,IGROV1 ovarian,39300 nM
same,GI50,HOP-62 NSCLC,< 10 nM
same,TGI,HOP-62 NSCLC,503 nM
same,GI50,NCI-H226 lung,< 10 nM
same,TGI,NCI-H226 lung,22.8 nM
same,GI50,MDA-MB-231 breast,59 nM
same,TGI,MDA-MB-231 breast,> 100000 nM
same,GI50,SNB-75 CNS,12 nM
same,TGI,SNB-75 CNS,> 100000 nM
same,GI50,ACHN renal,< 10 nM
same,TGI,ACHN renal,37300 nM
same,GI50,A498 renal,< 10 nM
same,TGI,A498 renal,36.5 nM
same,GI50,MDA-MB-468 breast,< 10 nM
same,TGI,MDA-MB-468 breast,< 10 nM
same,GI50,RXF 393 renal,< 10 nM
same,TGI,RXF 393 renal,10300 nM
same,GI50,HOP-92 NSCLC,30.5 nM
same,TGI,HOP-92 NSCLC,> 100000 nM
